These results are taken from article PMC6705210, “Inhibition of HTLV-1 Infection by HIV-1 First- and Second-Generation Integrase Strand Transfer Inhibitors” (Frontiers in Microbiology, 2019).

Read-outs that look alike come from different tables or passages of the source.

In one data set the target is T1, HTLV-1 integrase (Human T-cell leukemia virus 1, UniProt P03362).
T1 construct: Full-length wild type HTLV-1 IN was recombinantly expressed, purified, and characterized; SUMO (pET28a-SUMO fusion) (N); made in house
The data set can be described thus: In vitro HTLV-1 integrase strand transfer assay (concerted integration, agarose gel densitometry). Particulars: for Inhibition of enzymatic activity Hill slope: dose-response fit of strand transfer inhibition. The format is biochemical. As to the method:
Donor DNA mimicking the U5 3′-processed LTR ends of the viral DNA copy was prepared by annealing oligonucleotides (Supplementary Table S1), in 100 mM Tris pH 7.4, 400 mM NaCl. The optimized conditions for the strand transfer reactions are as follows: a solution was prepared containing 73 mM PIPES pH 6.0, 175 mM NaCl, 16.7 mM MgCl2, 5.8 μM ZnCl2, 12.8 mM DTT, 0.53 μM donor DNA, and 0.8 μM HTLV-1 integrase. Following a 30 min room temperature incubation in the presence or absence of INSTIs in the final concentration of 5% DMSO, the reaction was initiated by addition of 300 ng of pGEM-9Zf(−) supercoiled plasmid DNA. The total volume of each reaction was 150 μL. Reactions were carried out at 37°C for 30 min and were processed as described previously ([Maertens et al., 2010]). All reactions were performed in these conditions unless otherwise stated in the Figure legend. Reactions that included B′γ were done with equimolar ratio of IN to B′γ. The precipitated DNA was resuspended in agarose loading dye and analyzed on a 1.5% agarose gel run in 1× TAE buffer and stained with ethidium bromide. Bands corresponding to products of concerted integration were quantified by densitometry in ImageLab 4.1 (Bio-Rad). All experiments were done in triplicate.
Quantified data points were fitted to a dose-response curve in Prism 7. Cumulative standard deviation for each drug was calculated as an average of the upper limit and lower limit values: […]

In data set [1] the test system is HTLV-1. Description: HTLV-1 infection of Jurkat cells by cell-to-cell transmission (co-culture with irradiated MT-2), proviral load by qPCR. Format: cell-based, Human T-cell lymphotropic virus type 1. Conditions: for EC50: read-out: Antiviral activity EC50 (HTLV-1). Here is the method:
(§1) Jurkat cells were pre-treated with increasing amounts of INSTI (0.2 pM–2 μM in DMSO), or the carrier (DMSO) for 24 h. MT-2 cells were resuspended to a concentration of 2 × 10^6 cells/mL and exposed to a sub-lethal dose of gamma-irradiation (40,000 Rad). Cells were resuspended in serum-free RPMI to a concentration of 2 × 10^6 cells/mL in the presence of drug, and 0.5 × 10^6 of each cell type were co-cultured for 18 h. Following co-culture, cells were washed in PBS and resuspended in 1 mL of depletion buffer (0.1% FBS, 2 mM EGTA, PBS) before gentle tumbling (1 h, 4°C) with 25 μL of anti-CD25 + magnetic beads (DynaBeads, Thermo Fisher Scientific) to deplete MT-2 cells. Following depletion, the unbound fraction, i.e., Jurkat cells were maintained in RPMI with the drug present for 16 days before genomic DNA harvest (DNeasy kit, Qiagen). All experiments were done in triplicate. Depletion of MT-2 cells was verified by FACS. For cellular toxicity measurements, Jurkat cells were grown in the presence of the INSTIs as described above. Viability was measured by live dead stain (Hoechst 33258) and analyzed by FACS.
Proviral load (PVL) was estimated as previously described ([Manivannan et al., 2016]; [Rowan et al., 2016]). Genomic DNA concentrations were measured by nanospectroscopy (DeNovix), and samples were diluted to 5 ng/μL for real-time PCR (qPCR) analysis. qPCR reactions were performed for both the HTLV-1 tax gene and the human GAPDH gene (Supplementary Table S2). Gene copy numbers were determined by comparison to standard curves generated from a clone with a known single integration site (clone 11.50, courtesy of Prof. Charles Bangham). PVL was calculated by comparison of tax and GAPDH copy numbers as a fraction, multiplied by 100 to generate a percentile value assuming a single copy of tax and two copies of GAPDH per infected cell ([Lairmore et al., 1989]). Alu-PCR was performed as described previously ([Alais et al., 2015]), with the modification that the nested PCR was also run as a qPCR using SYBR-green (primers used are shown in Supplementary Table S2). Integrated provirus copy numbers were normalized to GAPDH, and DMSO treated HTLV-1 infected Jurkat cells were arbitrarily set to 100%. Averages and standard deviations of three independent experiments are shown. P-values were calculated using the student’s t-test.

A further data set concerns HIV-1. Conditions: read-out: HIV-1 antiviral activity EC50, cited from earlier work.
Data set [2] can be described thus: Cellular toxicity in Jurkat cells (live dead stain Hoechst 33258, FACS). Format: cell-based. Particulars: human. Here is the method:
as §1, with “MT-2” for “Jurkat cells were pre-treated with increasing amounts of INSTI (0.2 pM–2 μM in DMSO), or the carrier (DMSO) for 24 h. MT-2”

Data set [3] relates to HTLV-1. Further details: method as in Pasquier et al., 2018. Particulars: ref Pasquier et al., 2018, cited from earlier work.
Setting [4] is: HTLV-1 IN 0.8 μM, concerted integration product.
[5] abbreviates: Jurkat cells co-cultured with irradiated MT-2, PVL 16 days post-infection.
The mark [6] stands for this setting: HTLV-1 IN 0.8 μM, concerted integration product, triplicate, read-out: Inhibition of enzymatic activity IC50.
The mark [7] stands for this setting: Primate T-lymphotropic virus 1, Jurkat, light or radiation study, 384 h, Jurkat cells co-cultured with irradiated MT-2, PVL 16 days post-infection.

Usually IC50 stands for the concentration at which inhibition is half-maximal. By EC50 is commonly meant the midpoint of the concentration-response curve. As usually defined, the CC50 is the concentration at which the toxic effect on the cells reaches its halfway point.

T1 sequence (P03362 1168-1462): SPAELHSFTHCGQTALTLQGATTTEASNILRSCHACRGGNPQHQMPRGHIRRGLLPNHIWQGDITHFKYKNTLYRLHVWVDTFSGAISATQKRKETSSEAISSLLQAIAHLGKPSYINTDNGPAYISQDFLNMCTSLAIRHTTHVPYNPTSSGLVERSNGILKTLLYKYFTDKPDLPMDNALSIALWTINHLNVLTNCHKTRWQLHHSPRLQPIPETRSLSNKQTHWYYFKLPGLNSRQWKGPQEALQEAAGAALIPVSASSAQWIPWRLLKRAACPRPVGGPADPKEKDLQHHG

With `Cc1nnc(C(=O)NC(C)(C)c2nc(C(=O)NCc3ccc(F)cc3)c(O)c(=O)n2C)o1` [Raltegravir, raltegravir], at HTLV-1 integrase, the IC50 came to 0.53 ± 0.102 µM and the “Inhibition of enzymatic activity Hill slope” value is recorded as 0.73. Further, the “Inhibition of enzymatic activity IC95” value on HTLV-1 integrase (setting [4]) was 29.92 ± 5.75 µM. For the same molecule, the “Antiviral activity EC95 (HTLV-1)” value in the data set with HTLV-1 [1] (setting [5]) amounted to 1.02 ± 0.675 µM. Also, the EC50 with HTLV-1 [1] (Primate T-lymphotropic virus 1, Jurkat, light or radiation study, 384 h) stood at 0.00642 ± 0.00424 µM. Besides, the EC50 with HIV-1 (ref a) is 0.0094 ± 0.0014 µM. Besides, the CC50 in data set [2] (Jurkat cells, read-out: CC50) was > 20 µM.

In the case of `CC(C)OC(=O)OCOP(=O)(CO[C@H](C)Cn1cnc2c(N)ncnc21)OCOC(=O)OC(C)C.O=C(O)/C=C/C(=O)O` [TDF, tenofovir disproxil fumarate], the HTLV-1 infection blocked entry in the data set with HTLV-1 [3] (at concentrations of 10 μM) is “about 50%”. In addition, the EC50 in the data set on HTLV-1 [1] (setting [5]) was determined as 0.0178 ± 0.00716 µM.

In the case of `C[C@@H]1CCO[C@H]2Cn3cc(C(=O)NCc4ccc(F)cc4F)c(=O)c(O)c3C(=O)N12` [Dolutegravir, dolutegravir], on HTLV-1 integrase (setting [4]), the “Inhibition of enzymatic activity IC95” value worked out at 3.02 ± 0.485 µM. Besides, on HTLV-1 integrase (setting [6]), the IC50 turned out to be 0.26 ± 0.059 µM. Further, the “Inhibition of enzymatic activity Hill slope” value at HTLV-1 integrase worked out at 1.2. Further, the EC50 with HIV-1 (ref a) was 0.0014 ± 0.0003 µM.

As for `O=C(NCc1c(F)cc(F)cc1F)c1cn2c(c(O)c1=O)C(=O)N1[C@H]3CC[C@H](C3)O[C@@H]1C2` [Bictegravir, bictegravir], at HTLV-1 integrase (setting [4]), the “Inhibition of enzymatic activity IC95” value is 2.09 ± 0.437 µM. At HTLV-1 integrase (setting [6]), the IC50 came to 0.18 ± 0.029 µM. On HTLV-1 integrase, the “Inhibition of enzymatic activity Hill slope” value is listed as 1.2. The “activity relative to elvitegravir” value at HTLV-1 integrase (in vitro assays, versus elvitegravir) is recorded as ~55%. For the same molecule, in the data set with HTLV-1 [1] (HTLV-1 cell-to-cell infection model, versus raltegravir or elvitegravir), the “fold higher activity than raltegravir or elvitegravir, respectively” value is recorded as 20–30 fold. Besides, in the data set with HTLV-1 [1] (setting [5]), the “Antiviral activity EC95 (HTLV-1)” value came to 0.0318 ± 0.0182 µM. Also, the figures for the EC50 in the data set on HTLV-1 [1] (setting [5]), with HTLV-1 [1] (setting [7]) and in the data set on HIV-1 (ref a) were 0.000302 ± 0.000173 µM, 0.0003 ± 0.00017 µM and 0.0016 ± 0.0004 µM, respectively. Also, the “more potent than TDF in blocking HTLV-1 infection” value with HTLV-1 [1] (versus TDF) is on record as ~60. Moreover, the CC50 in data set [2] is > 20 µM.

On to `Cn1c(N2CCCCS2(=O)=O)nc(C(=O)NCc2ccc(F)cc2)c(O)c1=O` [BMS-707035], for which the “Inhibition of enzymatic activity IC95” value on HTLV-1 integrase (setting [4]) came out at 12.2 ± 2.90 µM. Further, at HTLV-1 integrase (setting [6]), the IC50 came to 0.35 ± 0.074 µM. Besides, at HTLV-1 integrase, the “Inhibition of enzymatic activity Hill slope” value came to 0.83. Besides, the EC50 with HIV-1 (ref c) was 0.0025 µM.

Take `COc1cc2c(cc1Cc1cccc(Cl)c1F)c(=O)c(C(=O)O)cn2[C@H](CO)C(C)C` [Elvitegravir, elvitegravir]: on HTLV-1 integrase, the IC50 is 0.1 ± 0.016 µM and the “Inhibition of enzymatic activity Hill slope” value is reported as 1.0. For the same molecule, the “Inhibition of enzymatic activity IC95” value on HTLV-1 integrase (setting [4]) was 1.9 ± 0.304 µM. For the same molecule, the “Antiviral activity EC95 (HTLV-1)” value in the data set on HTLV-1 [1] (setting [5]) came out at 1.27 ± 0.735 µM. Besides, in the data set on HTLV-1 [1] (setting [7]), the EC50 was 0.00957 ± 0.00554 µM. The CC50 in data set [2] was > 20 µM.

`Cc1cn([C@H]2C[C@H](N=[N+]=[N-])[C@@H](CO)O2)c(=O)[nH]c1=O` [zidovudine]: the “inhibition of HTLV-1 infection” value in the data set on HTLV-1 [3] (at 50 μM concentration) was 10–20%.
